{
  "source": "patent EP1332762A1",
  "about": "“Method of treating hyperprolactinemia and prolactinomas” (Cedars-Sinai Medical Center, priority 1997, dated 1998)",
  "key": {"[1]": {"system": "Cells derived from six prolactin-secreting pituitary adenomas", "test": "Reduction of prolactin secretion from cultured prolactinoma cells (PRL by immunoradiometric assay)", "format": "cell-based, human", "conditions": "for effect on prolactin release: adenomatous cell cultures of tumor 1; for effect on prolactin release / suppressed prolactin release: 10-100 nM; for effect on prolactin release / suppressed prolactin secretion / suppressed prolactin release: 3 hours; for effect on prolactin release / response of prolactin secretion / effect on prolactin production: result in words; for suppressed prolactin secretion: cell cultures from tumor 1; for response of prolactin secretion: cells of the four large male tumors (tumors 1-4); for suppressed prolactin release / effect on prolactin production: large tumor 4 cell cultures"}, "[2]": {"molecular_target": "hSSTR-1 (Homo sapiens, UniProt P30872)", "sequence (P30872 whole entry)": "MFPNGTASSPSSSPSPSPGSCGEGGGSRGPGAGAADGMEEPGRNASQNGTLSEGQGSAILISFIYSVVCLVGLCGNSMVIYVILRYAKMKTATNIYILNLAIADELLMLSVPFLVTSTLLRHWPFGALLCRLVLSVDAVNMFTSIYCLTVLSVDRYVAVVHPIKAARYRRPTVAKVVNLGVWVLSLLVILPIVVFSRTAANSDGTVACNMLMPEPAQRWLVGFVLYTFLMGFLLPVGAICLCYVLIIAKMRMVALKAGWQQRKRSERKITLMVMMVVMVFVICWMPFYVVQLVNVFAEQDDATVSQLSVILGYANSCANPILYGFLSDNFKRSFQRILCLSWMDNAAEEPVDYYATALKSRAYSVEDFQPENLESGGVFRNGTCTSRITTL", "test": "Somatostatin receptor binding assay ([125I-Tyr11]somatostatin-14, membranes of transfected CHO-K1 cells)", "conditions": "radioligand 0.05 nM, 30 min at 30 °C"}, "[3]": {"molecular_target": "hSSTR-5 (Homo sapiens, UniProt P35346)", "sequence (P35346 whole entry)": "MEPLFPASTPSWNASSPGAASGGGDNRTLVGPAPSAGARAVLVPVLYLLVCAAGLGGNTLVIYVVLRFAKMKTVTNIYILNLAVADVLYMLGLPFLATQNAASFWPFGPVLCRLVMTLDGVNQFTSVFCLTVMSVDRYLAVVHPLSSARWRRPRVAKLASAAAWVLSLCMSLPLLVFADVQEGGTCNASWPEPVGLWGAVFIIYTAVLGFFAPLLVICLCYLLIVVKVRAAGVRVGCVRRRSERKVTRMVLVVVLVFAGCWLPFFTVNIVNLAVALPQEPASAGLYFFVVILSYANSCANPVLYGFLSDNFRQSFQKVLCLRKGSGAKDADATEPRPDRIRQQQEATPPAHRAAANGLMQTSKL", "test": "Somatostatin receptor binding assay ([125I-Tyr11]somatostatin-14, membranes of transfected CHO-K1 cells)", "conditions": "radioligand 0.05 nM, 30 min at 30 °C"}, "[4]": {"molecular_target": "hSSTR-2 (Homo sapiens, UniProt P30874)", "sequence (P30874 whole entry)": "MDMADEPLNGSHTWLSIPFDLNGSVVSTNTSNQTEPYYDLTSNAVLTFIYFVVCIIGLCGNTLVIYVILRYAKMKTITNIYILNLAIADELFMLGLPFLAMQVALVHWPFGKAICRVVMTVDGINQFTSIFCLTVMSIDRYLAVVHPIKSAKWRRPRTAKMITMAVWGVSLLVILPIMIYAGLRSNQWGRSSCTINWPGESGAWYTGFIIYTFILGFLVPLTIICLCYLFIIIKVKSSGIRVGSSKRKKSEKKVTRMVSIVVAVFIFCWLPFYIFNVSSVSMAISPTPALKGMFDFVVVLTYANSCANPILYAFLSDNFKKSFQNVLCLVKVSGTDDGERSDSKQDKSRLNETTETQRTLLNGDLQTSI", "test": "Somatostatin receptor binding assay ([125I-Tyr11]somatostatin-14, membranes of transfected CHO-K1 cells)", "conditions": "radioligand 0.05 nM, 30 min at 30 °C"}, "[5]": {"molecular_target": "hSSTR-4 (Homo sapiens, UniProt P31391)", "sequence (P31391 whole entry)": "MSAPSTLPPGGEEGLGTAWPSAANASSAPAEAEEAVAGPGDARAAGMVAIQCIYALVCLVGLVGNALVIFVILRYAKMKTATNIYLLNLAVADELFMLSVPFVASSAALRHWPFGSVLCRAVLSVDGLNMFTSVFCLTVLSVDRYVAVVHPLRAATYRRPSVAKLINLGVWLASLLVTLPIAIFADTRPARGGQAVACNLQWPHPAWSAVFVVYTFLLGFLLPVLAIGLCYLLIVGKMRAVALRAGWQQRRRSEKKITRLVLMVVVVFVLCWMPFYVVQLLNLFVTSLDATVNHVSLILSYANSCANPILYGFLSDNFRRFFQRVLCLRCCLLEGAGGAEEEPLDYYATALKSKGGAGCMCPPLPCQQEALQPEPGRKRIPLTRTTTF", "test": "Somatostatin receptor binding assay ([125I-Tyr11]somatostatin-14, membranes of transfected CHO-K1 cells)", "conditions": "radioligand 0.05 nM, 30 min at 30 °C"}, "[6]": {"molecular_target": "hSSTR-3 (Homo sapiens, UniProt P32745)", "sequence (P32745 whole entry)": "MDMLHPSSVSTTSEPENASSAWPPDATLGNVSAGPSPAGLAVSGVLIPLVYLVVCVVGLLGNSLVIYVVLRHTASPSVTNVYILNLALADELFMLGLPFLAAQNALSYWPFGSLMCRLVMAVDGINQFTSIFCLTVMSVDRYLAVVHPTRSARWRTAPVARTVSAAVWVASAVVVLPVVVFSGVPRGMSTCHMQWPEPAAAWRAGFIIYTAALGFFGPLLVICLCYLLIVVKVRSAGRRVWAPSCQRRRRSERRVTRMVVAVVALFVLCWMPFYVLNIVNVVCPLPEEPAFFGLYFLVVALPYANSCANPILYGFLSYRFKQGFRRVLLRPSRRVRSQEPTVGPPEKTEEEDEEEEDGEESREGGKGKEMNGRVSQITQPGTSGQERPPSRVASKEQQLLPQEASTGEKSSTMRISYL", "test": "Somatostatin receptor binding assay ([125I-Tyr11]somatostatin-14, membranes of transfected CHO-K1 cells)", "conditions": "radioligand 0.05 nM, 30 min at 30 °C"}},
  "note": "Positions of bridges follow the written chain, without caps; N, C: chain ends. Non-standard residues stand in square brackets, D forms with d. Residues, ends and D or L forms follow the SMILES beside them.",
  "data": [
    {"compound": "CC[C@@H]1NC(=O)[C@H](CCCCN)NC(=O)[C@@H](Cc2c[nH]c3ccccc23)NC(=O)[C@H](Cc2ccc(O)cc2)NC(=O)[C@@H](NC(=O)[C@H](N)Cc2ccccc2)CSSC[C@@H](C(=O)N[C@H](C(N)=O)[C@@H](C)O)NC1=O", "note": "[BIM-23023]", "values": [
      {"measurement": "effect on prolactin release", "setting": "[1]", "result": "did not affect prolactin release"}
    ]},
    {"compound": "C[C@@H](O)[C@H](NC(=O)[C@H](Cc1ccccc1)NC(=O)[C@@H](NC(=O)[C@H](CCCCN)NC(=O)[C@@H](Cc1c[nH]c2ccccc12)NC(=O)[C@H](Cc1ccccc1)NC(=O)[C@H](Cc1ccccc1)NC(=O)[C@H](N)Cc1ccccc1)[C@@H](C)O)C(N)=O", "note": "[BIM-23052, H-D-Phe-Phe-Phe-D-Trp-Lys-Thr-Phe-Thr-NH2] (H-[dF]FF[dW]KTFT-NH2)", "values": [
      {"measurement": "suppressed prolactin secretion", "setting": "[1]; 10 nM, p<0.05", "result": 33, "unit": "%"},
      {"measurement": "response of prolactin secretion", "setting": "[1]", "result": "suppression of prolactin secretion"},
      {"measurement": "suppressed prolactin release", "setting": "[1]; p<0.05", "result": "more than 30%"},
      {"measurement": "Ki", "setting": "[2]", "result": 97.6, "unit": "nM"},
      {"measurement": "Ki", "setting": "[3]", "result": 1.22, "unit": "nM"},
      {"measurement": "Ki", "setting": "[4]", "result": 12, "unit": "nM"},
      {"measurement": "Ki", "setting": "[5]", "result": 127, "unit": "nM"},
      {"measurement": "Ki", "setting": "[6]", "result": 5.6, "unit": "nM"}
    ]},
    {"compound": "CC[C@@H]1NC(=O)[C@H](CCCCN)NC(=O)[C@@H](Cc2c[nH]c3ccccc23)NC(=O)[C@H](Cc2ccc(O)cc2)NC(=O)[C@@H](NC(=O)[C@@H](Cc2ccccc2)NC(=O)CN2CCN(CCO)CC2)CSSC[C@@H](C(=O)N[C@H](C(N)=O)[C@@H](C)O)NC1=O", "note": "[BIM-23190]", "values": [
      {"measurement": "effect on prolactin release", "setting": "[1]", "result": "did not affect prolactin release"},
      {"measurement": "response of prolactin secretion", "setting": "[1]", "result": "failed to respond"},
      {"measurement": "effect on prolactin production", "setting": "[1]", "result": "modestly stimulated prolactin production"}
    ]},
    {"compound": "CC[C@@H]1NC(=O)[C@H](CCCCN)NC(=O)[C@@H](Cc2c[nH]c3ccccc23)NC(=O)[C@H](Cc2ccc(O)cc2)NC(=O)[C@@H](NC(=O)[C@@H](Cc2ccccc2)NS(=O)(=O)CCN2CCN(CCO)CC2)CSSC[C@@H](C(=O)N[C@H](C(N)=O)[C@@H](C)O)NC1=O", "note": "[BIM-23197]", "values": [
      {"measurement": "effect on prolactin release", "setting": "[1]", "result": "did not affect prolactin release"},
      {"measurement": "response of prolactin secretion", "setting": "[1]", "result": "failed to respond"},
      {"measurement": "effect on prolactin production", "setting": "[1]", "result": "modestly stimulated prolactin production"}
    ]},
    {"compound": "C[C@@H](O)[C@@H]1NC(=O)[C@H](CCCCN)NC(=O)[C@@H](Cc2c[nH]c3ccccc23)NC(=O)[C@H](Cc2ccccc2)NC(=O)[C@H](Cc2ccccc2)NC(=O)[C@@H](N)CSSC[C@@H](C(N)=O)NC(=O)[C@H](Cc2ccccc2)NC1=O", "note": "[BIM-23268] (H-CFF[dW]KTFC-NH2; disulfide 1-8)", "values": [
      {"measurement": "suppressed prolactin secretion", "setting": "[1]; 10 nM, p<0.05", "result": 36, "unit": "%"},
      {"measurement": "response of prolactin secretion", "setting": "[1]", "result": "suppression of prolactin secretion"},
      {"measurement": "suppressed prolactin", "setting": "[1]; large tumor 3 cell cultures, 10 nM and 100 nM, dose dependent, p<0.05", "result": "up to 29%"},
      {"measurement": "suppressed prolactin release", "setting": "[1]; p<0.05", "result": "more than 30%"},
      {"measurement": "Prolactin release inhibited", "setting": "[1]; tumor 2 cell cultures, 10 nM, versus controls, p<0.0005", "result": 38, "unit": "%"}
    ]},
    {"compound": "CC(C)[C@@H]1NC(=O)[C@H](CCCCN)NC(=O)[C@@H](Cc2c[nH]c3ccccc23)NC(=O)[C@H](Cc2ccc(O)cc2)NC(=O)[C@@H](NC(=O)[C@H](N)Cc2ccc3ccccc3c2)CSSC[C@@H](C(=O)N[C@H](C(N)=O)[C@@H](C)O)NC1=O", "note": "[Lanreotide]", "values": [
      {"measurement": "effect on prolactin release", "setting": "[1]", "result": "did not affect prolactin release"},
      {"measurement": "response of prolactin secretion", "setting": "[1]", "result": "failed to respond"},
      {"measurement": "Ki", "setting": "[4]", "result": 0.75, "unit": "nM"}
    ]},
    {"compound": "C[C@@H](O)[C@@H]1NC(=O)[C@H](CCCCN)NC(=O)[C@@H](Cc2c[nH]c3ccccc23)NC(=O)[C@H](Cc2ccccc2)NC(=O)[C@@H](NC(=O)[C@H](N)Cc2ccccc2)CSSC[C@@H](C(=O)N[C@H](CO)[C@@H](C)O)NC1=O", "note": "[Octreotide]", "values": [
      {"measurement": "response of prolactin secretion", "setting": "[1]", "result": "failed to respond"}
    ]}
  ]
}
